Test results from patent US20260250257A1, “ANTIBACTERIAL AND SYNERGISTIC ACTIVE COMPOUND AND USE THEREOF” (EAST CHINA UNIVERSITY OF SCIENCE AND TECHNOLOGY, priority 2023, published 2026).
In brackets after ≈: the same amount, converted by molar mass.

Columns and labels:
Format in all cases: cell-based
[1] = tested on: ATCC13883 strain (Klebsiella pneumoniae); experiment: Checkerboard antibacterial synergistic activity test with polymyxin E (FIC); set-up: key: FIC≤0.5 synergy; 0.5–1 additive; 1–2 indifferent; ≥2 antagonism; conditions: combined with polymyxin E
How it was run: (§1)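 Checkerboard in MH broth: colistin dilutions 16→0.015 μg/ml × test drug 256→4 μg/ml (concentrations before adding inoculum); drug mix plus bacteria, 37° C., 16 h. FIC cut-offs: ≤0.5 synergy; 0.5–1 additive; 1–2 indifferent; ≥2 antagonism.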

[2] = tested on: ATCC19606 strain (Acinetobacter baumannii); experiment: as above; set-up: key: FIC≤0.5 synergy; 0.5–1 additive; 1–2 indifferent; ≥2 antagonism; conditions: combined with polymyxin E
How it was run: as §1

[3] = tested on: ATCC25922 strain (Escherichia coli); experiment: as above; set-up: key: FIC≤0.5 synergy; 0.5–1 additive; 1–2 indifferent; ≥2 antagonism; conditions: combined with polymyxin E
How it was run: as §1

[4] = tested on: ATCC9027 strain (Pseudomonas aeruginosa); experiment: as above; set-up: key: FIC≤0.5 synergy; 0.5–1 additive; 1–2 indifferent; ≥2 antagonism; conditions: combined with polymyxin E
How it was run: as §1

[5] = tested on: ATCC13883 strain (Klebsiella pneumoniae); experiment: Broth microdilution, antibacterial activity of the compound used alone
Source text: (§2) The broth microdilution method was used to test the antibacterial effects of the compounds of the present invention against various Gram-negative bacterial strains when used alone.

[6] = tested on: ATCC19606 strain (Acinetobacter baumannii); experiment: as above
Source text: as §2

[7] = tested on: ATCC25922 strain (Escherichia coli); experiment: as above
Source text: as §2

[8] = tested on: ATCC9027 strain (Pseudomonas aeruginosa); experiment: as above
Source text: as §2

| SMILES | Synergistic activity (FIC value) ATCC13883 [1] | Synergistic activity (FIC value) ATCC19606 [2] | Synergistic activity (FIC value) ATCC25922 [3] | Synergistic activity (FIC value) ATCC9027 [4] | Antibacterial activity of the compound of Formula I, ATCC13883 [5] | Antibacterial activity of the compound of Formula I, ATCC19606 [6] | Antibacterial activity of the compound of Formula I, ATCC25922 [7] | Antibacterial activity of the compound of Formula I, ATCC9027 [8] | MIC ([5]; read-out: Antibacterial activity of the compound of Formula I, ATCC13883) | MIC ([6]; read-out: Antibacterial activity of the compound of Formula I, ATCC19606) | MIC ([7]; read-out: Antibacterial activity of the compound of Formula I, ATCC25922) | MIC ([8]; read-out: Antibacterial activity of the compound of Formula I, ATCC9027) |
| --- | --- | --- | --- | --- | --- | --- | --- | --- | --- | --- | --- | --- |
| CSc1cc2ccc(C)cn2c1-c1nc(N=C(N)N)sc1C [Compound I-126] | 0.13 | 0.04 | 0.2 | 0.28 | 256 µg/mL | 256 µg/mL | 256 µg/mL | 256 µg/mL |  |  |  |  |
| CSc1cc2cc(C)ccn2c1-c1coc(N=C2NCCCN2)n1 [Compound I-192] | 0.38 | 0.5 | 0.38 | 0.63 | 256 µg/mL | 256 µg/mL | 256 µg/mL | 256 µg/mL |  |  |  |  |
| NC(N)=Nc1nc(-c2ccccc2C(F)(F)F)c[se]1 [Compound I-41] | 0.38 | 0.5 | 0.38 | 0.63 | 256 µg/mL | 256 µg/mL | 256 µg/mL | 256 µg/mL |  |  |  |  |
| CSc1cc2ccccn2c1-c1csc(N=C(N)N)n1 [Compound I-123] | 0.09 | 0.31 | 0.14 | 0.06 |  |  |  |  | 256 µg/mL (≈ 844 µM) | 256 µg/mL (≈ 844 µM) | 256 µg/mL (≈ 844 µM) | 256 µg/mL (≈ 844 µM) |
| Cc1cc(-c2csc(N=C3NCCCN3)n2)cc(C)c1O [Compound I-173] | 0.38 | 0.75 | 0.5 | 0.63 | 256 µg/mL | 256 µg/mL | 256 µg/mL | 256 µg/mL |  |  |  |  |
| NC(N)=Nc1nc(-c2c(Br)cc(Br)cc2Br)c(I)o1 [Compound I-53] | 0.25 | 0.28 | 0.5 | 0.63 | 256 µg/mL | 256 µg/mL | 256 µg/mL | 256 µg/mL |  |  |  |  |
| Cc1sc(N=C(N)N)nc1-c1ccc(Cl)cc1Oc1ccc(Cl)cc1Cl [Compound I-89] | 0.13 | 0.02 | 0.15 | 0.18 | 256 µg/mL | 256 µg/mL | 256 µg/mL | 256 µg/mL |  |  |  |  |
| N#Cc1ccc(-c2csc(N=C3NCCCN3)n2)c(Br)c1 [Compound I-174] | 0.52 | 0.52 | 0.63 | 1.25 | 256 µg/mL | 256 µg/mL | 256 µg/mL | 256 µg/mL |  |  |  |  |
